Patent US20220023282A1 (priority 2018, published 2022)
In brackets after ≈: the same amount, converted by molar mass.

Tests used:
[1] = system: M. scrofulaceum; conditions: cited from earlier work
[2] = system: M. maqeritense; conditions: cited from earlier work
[3] = system: M. malmoense; conditions: cited from earlier work
[4] = system: Calu-3; assay: Cell viability (MTT) of pulmonary epithelial cells; type: cell-based
Experimental: (§1) MTT is the tetrazolium dye 3-(4,5-dimethylthiazol-2-yl)-2,5-diphenyltetrazolium bromide which is converted by mitochondrial reductase to its insoluble formazan. In living cells, the insoluble formazan can be dissolved by adding the detergent dimethylsulfoxide for 15 minutes. The absorption of the respective dye is measured by a plate-reader at 590 nm. For the calculation of the viability after the incubation of the test compounds a positive and a negative control is included. Hank's balanced salt solution (HBSS) is used as a negative control and the resulting absorbance value is set to 100% viability. The positive control (1% Triton-X-100) is used to set 0% viability. Accordingly, the IC50 value of the test formulation can be determined by measuring a dose-response curve in log-scale.
(§2) These formulations (designated as 100%) were diluted with HBSS to give the following formulations for testing:
(§3) Cells were treated with the test formulations for 4 hours at 37° C. The viability of the cells after exposure was used to set up a dose-response curve in logarithmic scale. A sigmoidal fit enables the IC20, IC50, and IC80 calculations of the test substances.

[5] = system: M. ulcerans; conditions: cited from earlier work
[6] = system: Drug-susceptible M. tuberculosis; conditions: cited from earlier work
[7] = system: M. hiberniae; conditions: cited from earlier work
[8] = system: M. chelonae; conditions: cited from earlier work
[9] = system: M. abscessus; conditions: cited from earlier work
[10] = in vivo, cited from earlier work
[11] = system: MOR M. tuberculosis; conditions: cited from earlier work
[12] = human, in vivo, 400 mg; cited from earlier work
[13] = system: A549; assay: Cell viability (MTT) of pulmonary epithelial cells; type: cell-based
Experimental: as §1, §2, §3

[14] = system: M. kansasii; conditions: cited from earlier work
[15] = system: M. phlei; conditions: cited from earlier work
[16] = system: M. fortuitum; conditions: cited from earlier work
[17] = system: M. vaccae; conditions: cited from earlier work
[18] = system: M. avium; conditions: cited from earlier work
[19] = system: M. avium; conditions: cited from earlier work; remark: listed apart in the source
[20] = system: Mycobacterium tuberculosis H37Rv; conditions: standardized broth-dilution assay; cited from earlier work
[21] = system: M. marinum; conditions: cited from earlier work
[22] = system: M. abscessus; conditions: cited from earlier work; remark: listed apart in the source
[23] = system: M. simiae; conditions: cited from earlier work
[24] = system: M. smeqmatis mc2 155; conditions: cited from earlier work
[25] = system: M. qordonae; conditions: cited from earlier work

Which MIC [1] does the source give for COc1nc2ccc(Br)cc2cc1[C@@H](c1ccccc1)[C@@](O)(CCN(C)C)c1cccc2ccccc12 [bedaquiline, (1R,2S)-1-(6-bromo-2-methoxyquinolin-3-yl)-4-(dimethylamino)-2-(naphthalen-1-yl)-1-phenylbutan-2-ol] here?
Its MIC is 0.03 µg/mL (≈ 0.054 µM).

What about the MIC [2] of the same molecule?
Its MIC is 0.03 µg/mL (≈ 0.054 µM).

And the MIC [3]?
The MIC was 0.50 µg/mL (≈ 0.9 µM).

What about the “cytotoxic effect on cell viability as compared with vehicle” value [4] of the same molecule?
Its value is “minimal cytotoxic effect”.

What about the MIC [5] of the same molecule?
The MIC was 0.5 µg/mL (≈ 0.9 µM).

And the MIC [6]?
Its MIC is 0.06 µg/mL (≈ 0.108 µM).

And the MIC [7]?
The MIC was 0.03 µg/mL (≈ 0.054 µM).

What about the MIC [8] of the same molecule?
Its MIC is 0.06 to 0.5 µg/mL.

And the MIC [9]?
The MIC was 0.25 µg/mL (≈ 0.45 µM).

What about the “time to maximal plasma concentration after administration” value ([10]; po) of the same molecule?
Its value is 4 to 6 h.

What about the effective half-life [10] of the same molecule?
The effective half-life was 24 h.

What about the “half life in tissues” value [10] of the same molecule?
The value was “more than 5 months”.

And the terminal half life [10]?
The terminal half life was 5.5 months.

What about the MIC [11] of the same molecule?
Its MIC is 0.06 µg/mL (≈ 0.108 µM).

And the “Cmax in the sputum” value [12]?
Its value is 5000 ng/mL.

What about the “cytotoxic effect on cell viability as compared with vehicle” value [13] of the same molecule?
The value was “minimal cytotoxic effect”.

And the MIC [14]?
The MIC was 0.03 µg/mL (≈ 0.054 µM).

And the MIC [15]?
Its MIC is 0.03 to 0.13 µg/mL.

And the MIC [16]?
The MIC was 0.13 to 0.25 µg/mL.

What about the MIC [17] of the same molecule?
The MIC was 0.03 µg/mL (≈ 0.054 µM).

What about the MIC [18] of the same molecule?
Its MIC is 0.03 to 0.13 µg/mL.

And the MIC99 [19]?
The MIC99 was 0.01 to 0.03 µg/mL.

What about the MIC99 [20] of the same molecule?
The MIC99 was 0.015 to 0.12 µg/mL.

And the MIC [21]?
The MIC was 0.003 µg/mL (≈ 0.0054 µM).

What about the MIC99 [22] of the same molecule?
The MIC99 was 0.25 to 0.5 µg/mL.

What about the MIC [23] of the same molecule?
Its MIC is 0.03 µg/mL (≈ 0.054 µM).

And the MIC [24]?
The MIC was 0.12 µg/mL (≈ 0.216 µM).

And the MIC [25]?
Its MIC is 0.03 µg/mL (≈ 0.054 µM).
